Laboratory results as given in patent US20170014386A1, “Treatment of Multidrug-Resistant Nephrotic Syndrome (MDR-NS) in Children” (AbbVie, Inc., priority 2015, published 2017).
Entries after “also recorded” stand apart in the source; their conditions may differ.

Legend:
[1] = test system: Nphs2^R140Q/− mice; experiment: proteinuria in inducible mouse model of podocin-related nephrotic syndrome; type: in vivo
Description: We have analyzed results from studies in a transgenic mouse model where the mice were treated with atrasentan. Using the Cre recombinase technology, we generated a novel inducible mouse model of podocin-related nephrotic syndrome. Cross-breeding of animals carrying one foxed podocin construct, one podocin allele with the R140Q mutation, and tamoxifen-sensitive inducible Cre enabled us to induce hemizygosity for the R140Q mutant. In this work, we were able to examine the human missense mutation […] of NPHS2 gene identified in pediatric patients with nephrotic syndrome in vivo in an inducible mouse model of R140Q mutation (murine analogue to the human mutation). […] Furthermore, from the end of the week four of observation the values of plasma urea and creatinine started to increase slightly and the creatinine clearance appeared to reduce, pointing to the beginning of renal failure. Seven animals were treated with 5 mg/kg/d atrasentan and another three animals were treated with the lower dose of 2.5 mg/kg/d atrasentan via food intake for four weeks. Furthermore, we started a new group of 8 animals with a higher dose treatment of 15 mg/kg/d atrasentan. […] Proteinuria (FIG. 1A, FIG. 1B, and FIG. 1D), weight gain and blood pressure (FIG. 1C) were monitored once weekly. All animals were sacrificed at the end of the observation period at week 5 (or week 9 with delayed treatment) and the biochemical parameters (FIG. 3A-E) were determined. All results were compared to two control groups of healthy and sick untreated animals. […] Therefore, we started the treatment after 4 weeks of disease state (5 mg/kg/d) when animals are showing high proteinuria, performing 4-weeks treatment duration (n=14) and 8 weeks treatment duration (n=4), respectively. Proteinuria (FIG. 6), weight gain and blood pressure (FIG. 7) were monitored at least every 2 weeks. All animals were sacrificed at the end of the observation period and biochemical parameters (FIG. 8) as well as histological changes (FIG. 9) were determined consequently. […]

[2] = test system: Nphs2^R140Q/− mice; experiment: mean arterial blood pressure in inducible mouse model of podocin-related nephrotic syndrome; type: in vivo
Description: We have analyzed results from studies in a transgenic mouse model where the mice were treated with atrasentan. Using the Cre recombinase technology, we generated a novel inducible mouse model of podocin-related nephrotic syndrome. Cross-breeding of animals carrying one foxed podocin construct, one podocin allele with the R140Q mutation, and tamoxifen-sensitive inducible Cre enabled us to induce hemizygosity for the R140Q mutant. In this work, we were able to examine the human missense mutation […] of NPHS2 gene identified in pediatric patients with nephrotic syndrome in vivo in an inducible mouse model of R140Q mutation (murine analogue to the human mutation). […] Furthermore, from the end of the week four of observation the values of plasma urea and creatinine started to increase slightly and the creatinine clearance appeared to reduce, pointing to the beginning of renal failure. Seven animals were treated with 5 mg/kg/d atrasentan and another three animals were treated with the lower dose of 2.5 mg/kg/d atrasentan via food intake for four weeks. Furthermore, we started a new group of 8 animals with a higher dose treatment of 15 mg/kg/d atrasentan. […] Proteinuria (FIG. 1A, FIG. 1B, and FIG. 1D), weight gain and blood pressure (FIG. 1C) were monitored once weekly. All animals were sacrificed at the end of the observation period at week 5 (or week 9 with delayed treatment) and the biochemical parameters (FIG. 3A-E) were determined. All results were compared to two control groups of healthy and sick untreated animals. […] Therefore, we started the treatment after 4 weeks of disease state (5 mg/kg/d) when animals are showing high proteinuria, performing 4-weeks treatment duration (n=14) and 8 weeks treatment duration (n=4), respectively. Proteinuria (FIG. 6), weight gain and blood pressure (FIG. 7) were monitored at least every 2 weeks. All animals were sacrificed at the end of the observation period and biochemical parameters (FIG. 8) as well as histological changes (FIG. 9) were determined consequently. All results were compared to control groups of healthy and sick untreated animals.

[3] = test system: Nphs2^R140Q/− mice; experiment: kidney histopathology (tubulointerstitial fibrosis, glomerular sclerosis index, podocytes per glomerulus) in the mouse model; type: in vivo
Description: We have analyzed results from studies in a transgenic mouse model where the mice were treated with atrasentan. Using the Cre recombinase technology, we generated a novel inducible mouse model of podocin-related nephrotic syndrome. Cross-breeding of animals carrying one foxed podocin construct, one podocin allele with the R140Q mutation, and tamoxifen-sensitive inducible Cre enabled us to induce hemizygosity for the R140Q mutant. In this work, we were able to examine the human missense mutation […] of NPHS2 gene identified in pediatric patients with nephrotic syndrome in vivo in an inducible mouse model of R140Q mutation (murine analogue to the human mutation). […] Furthermore, from the end of the week four of observation the values of plasma urea and creatinine started to increase slightly and the creatinine clearance appeared to reduce, pointing to the beginning of renal failure. Proteinuria (FIG. 1A, FIG. 1B, and FIG. 1D), weight gain and blood pressure (FIG. 1C) were monitored once weekly. All animals were sacrificed at the end of the observation period at week 5 (or week 9 with delayed treatment) and the biochemical parameters (FIG. 3A-E) were determined. All results were compared to two control groups of healthy and sick untreated animals. […] Quantification was done with Image ProPremier (glomerular sclerosis index-GSI, 50 glomeruli/animal). […] FIG. 5C tabulates podocyte numbers per glomerulusWT1-via immunostaining of glomerular cross-sections (4 μm and 10 μm). Quantification was done with ImageJ according to Animal Models of Diabetic Complications Consortium protocol. 50 glomeruli/animal. We found no effect on the number of podocytes per glomerulus in treated animals. Proteinuria (FIG. 6), weight gain and blood pressure (FIG. 7) were monitored at least every 2 weeks. All animals were sacrificed at the end of the observation period and biochemical parameters (FIG. 8) as well as histological changes (FIG. 9) were determined consequently. All results were compared to control groups of healthy and sick untreated animals. […] FIG. 9A are exemplary images of healthy, untreated and Atrasentan treated kidney samples.

[4] = test system: Endothelin-1, ETAR and ETBR; experiment: expression of Endothelin-1, ETAR and ETBR (real-time PCR, Western blot) in kidney of the mouse model; type: in vivo; conditions: Atrasentan treated animals, Example 2
Description: Western blot analysis was performed to confirm the observation of increased mRNA level in the late course of disease (FIG. 11).

[5] = test system: podocin; experiment: podocin expression analysis (Western blot, qRT-PCR, immunofluorescence) in the mouse model; type: in vivo; conditions: treated animals, Example 2
Description: Further podocin expression analysis was carried out.

[6] = molecular target: T1, ETA receptor (Homo sapiens, UniProt P25101); conditions: cited from earlier work
T1 sequence (P25101 21-427): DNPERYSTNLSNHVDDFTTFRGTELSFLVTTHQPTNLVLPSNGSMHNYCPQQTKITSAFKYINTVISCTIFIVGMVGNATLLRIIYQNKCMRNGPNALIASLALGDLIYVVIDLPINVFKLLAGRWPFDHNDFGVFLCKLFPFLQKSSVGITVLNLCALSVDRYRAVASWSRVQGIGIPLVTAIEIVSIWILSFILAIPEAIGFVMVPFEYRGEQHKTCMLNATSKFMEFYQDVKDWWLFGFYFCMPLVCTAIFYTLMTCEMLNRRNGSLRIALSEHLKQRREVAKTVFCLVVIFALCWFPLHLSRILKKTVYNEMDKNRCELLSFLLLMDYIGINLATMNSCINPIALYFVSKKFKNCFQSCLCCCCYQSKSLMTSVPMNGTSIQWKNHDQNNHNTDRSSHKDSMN

[7] = delayed treatment, 4 weeks of treatment, compared to sick untreated animals of the same age, Example 2

With `CCCCN(CCCC)C(=O)CN1C[C@H](c2ccc3c(c2)OCO3)[C@@H](C(=O)O)[C@@H]1c1ccc(OC)cc1` [atrasentan, (2R,3R,4S)-4-(1,3-Benzodioxol-5-yl)-1-[2-(dibutylamino)-2-oxoethyl]-2-(4-methoxyphenyl)pyrrolidine-3-carboxylic acid] the proteinuria ([1]; delayed treatment 5 mg/kg/d after 4 weeks of disease state, Example 2) was “reaches a peak and declines afterwards progressively; also recorded: decreased progressively”, the proteinuria ([1]; delayed treatment 5 mg/kg/d started four weeks after induction, n=9, Example 1) was “effective attenuation of proteinuria; also recorded: antiproteinuric effect” and the proteinuria ([1]; immediate or prophylactic treatment, 2.5, 5 or 15 mg/kg/d via food, first 4 weeks after induction, Example 1) was “no beneficial effect in attenuating proteinuria; also recorded: no antiproteinuric effect”. For the same compound, the blood pressure ([2]; delayed treatment 5 mg/kg/d, compared to untreated animals, Example 1) was “lowered blood pressure”, the MAP ([2]; delayed treatment (D), wk7, p=0.001 v untreated 99.5) was 80.4 mmHg and the blood pressure ([2]; four-week delay, 5 mg/kg/d, compared to untreated animals at week 5 and 7 (p=0.001, p=0.047), Example 2) was “significant decrease of blood pressure”. The blood pressure ([2]; prophylactic 2.5 mg/kg/d, compared to untreated and healthy animals, Example 1) was “higher blood pressure”, the blood pressure ([2]; prophylactic 5 mg/kg/d, compared to untreated and healthy animals, Example 1) was “higher blood pressure” and the blood pressure ([2]; prophylactic 15 mg/kg/d, compared to untreated animals, Example 1) was “lower blood pressure”. The tubulointerstitial fibrosis ([3]; 2.5 mg/kg/d, p<0.05 compared to untreated group, Example 1) was “reduced area affected by fibrosis”, the tubulointerstitial fibrosis ([3]; 5 mg/kg/d, p<0.05 compared to untreated group, Example 1) was “reduced area affected by fibrosis” and the tubulointerstitial fibrosis ([3]; 15 mg/kg/d, Example 1) was “increase of tubulointerstial fibrosis”. For the same compound, the “glomerular sclerosis index (GSI)” value ([3]; all treatment groups, PAS staining, 50 glomeruli/animal, Example 1) was “No improvement”, the podocytes per glom ([3]; delayed treatment (D), n.s. vs. untreated wk 8 32%) was 54 % of healthy controls and the GSI ([3]; delayed treatment (D), n=9, p=0.0008 v untreated wk 8 2.27) was 1.69. The glomerulosclerosis [3, 7] was “mitigated”, the tubulointerstitial fibrosis [3, 7] was “mitigated” and the podocyte population ([3]; delayed treatment, 4 weeks of treatment, Example 2) was “No notable effects”. For the same compound, the “number of podocytes per glomerulus” value ([3]; treated animals, WT1 immunostaining, Example 1) was “no effect”, the “ETAR mRNA expression” value [4] was “lower expression” and the “ETBR mRNA expression” value [4] was “lower expression”. The “endothelin-1 mRNA expression” value [4] was “lower expression”, the “protein expression of endothelin-1” value ([4]; Western blot) was “decreased protein expression” and the Podocin protein abundance ([5]; Western blot) was “partly preserved”. For the same compound, the “Podocin mRNA expression” value ([5]; qRT-PCR) was “partly preserved” and the “relative selectivity for ETA receptor over ETB receptor” value [6] was “greater than 1,800 fold”.
